Laboratory results taken from patent US20210008095A1, “METHODS FOR TREATING MUSCULAR DYSTROPHY” (Sarepta Therapeutics, Inc., priority 2015, published 2021).

Tested on: patients with Duchenne muscular dystrophy (DMD) amenable to exon 51 skipping
Assay: Loss of ambulation / ambulatory status incl. Kaplan-Meier analysis, Study 201/202
Assay type: in vivo, human
Method: Study 201 (Study no. 4658-us-201; ClinicalTrials.gov Identifier: NCT01396239) was a single-site, randomized, double-blind, placebo-controlled, multiple-dose efficacy, safety and tolerability trial of eteplirsen. Twelve patients with DMD were randomized to one of three groups: eteplirsen 30 mg/kg/week (Cohort 1); eteplirsen 50 mg/kg/week (Cohort 2); or placebo/delayed eteplirsen (Cohort 3). All patients received weekly intravenous eteplirsen or placebo/delayed eteplirsen dosing. Placebo-treated patients crossed over to weekly eteplirsen 30 (n=2) or 50 mg/kg (n=2) at week 25. Efficacy and safety were assessed at scheduled visits, and an independent Data Safety Monitoring Board ensured the welfare of all patients. All patients had bicep biopsies at baseline. Follow-up biopsies were performed in the opposite arm (biceps) at week 12 for the 50 mg/kg group and two placebo-treated patients and at week 24 for the 30 mg/kg group and two placebo-treated patients.
Patients continued weekly dosing with 30 or 50 mg/kg eteplirsen under Study 202 (Study no. 4658-us-202; ClinicalTrials.gov Identifier: NCT01540409) a long-term, open-label extension study. All efficacy assessments continued to be performed during Study 202, including a third biopsy (in the left deltoid muscle) in all patients at week 48. A voluntary fourth biopsy ( 11/12 patients) was performed at week 180. Monitoring of adverse events continued throughout the study.
To compare the results of the eteplirsen cohort to a matched external control cohort, the Italian Telethon (n=97) and Leuven Neuromuscular Research Center (NMRC) (n=89) registries were used to compile control data. These registries were chosen because the following data was available: longitudinal 6MWT data in exon 51 amenable patients, longitudinal 6MWT data up to 36 months, and genetic mutation data. There was also an equivalent standard of care, including steroids, in these registries. Patient data was selected based on the following factors: baseline 6MTW and steroid treatment, age of 7 years or older, and amenable to exon 51 skipping (FIG. 2)
The 6MWT was administered using the protocol established for patients with DMD by McDonald, et al. (Muscle Nerve, 2010; 42:966-74; Muscle Nerve, 2010; 41:500-10 herein incorporated by reference), except there was no use of the StepWatch actimetry device. Exploratory functional outcomes included the North Star Ambulatory Assessment, quantitative muscle testing, the 9-Hole Peg Test, pulmonary function testing (PFT), timed function tests, and assessment of quality of life.

RNA, [P-deoxy-P-(dimethylamino)](2′,3′-dideoxy-2′,3′-imino-2′,3′-seco)(2′a→5′)(C-m5U-C-C-A-A-C-A-m5U-C-A-A-G-G-A-A-G-A-m5U-G-G-C-A-m5U-m5U-m5U-C-m5U-A-G), 5′-[P-[4-[[2-[2-(2-hydroxyethoxy)ethoxy]ethoxy]carbonyl]-1-piperazinyl]-N,N-dimethylphosphonamidate] (antisense CTCCAACATCAAGGAAGATGGCATTTCTAG; all phosphorodiamidate morpholino (PMO); 5' piperazinyl triethylene glycol carbamate tail on phosphonamidate, further chemistry not fully specified) [eteplirsen]
Kaplan-Meier estimate for loss of ambulation rate (4 years / 216 weeks of treatment, external control 89.7%, p=0.0038 log-rank): 16.7%
patients remaining ambulant (216 weeks (over 4 years)): 83.3%
number of patients remaining ambulant (216 weeks of treatment): 10 out of 12
age for loss of ambulation (Kaplan-Meier, external control median 12.8 years): could not be estimated
number of patients who lost ambulation (over 36 months): two of the twelve
cohort that lost ambulation (cumulative) (over 36 months, external control 46.2%): 16.7%
number of patients who lost ambulation (over 216 weeks): two of the twelve
DMD patients remaining ambulant (week 192, 30 mg/kg once per week): 83%
number of patients ambulant (week 192 of treatment): 10/12
ambulation in patients who lost the ability to rise from supine (year 4 of treatment): remained ambulant at year 4
